According to PubChem BioAssay (NCI):
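Step 1: Grow cells in 96-well plates. Step 2: Expose to compound for 48 hours at 5 concentrations. Step 3: Interpolate endpoints linearly; if unreached, use highest concentration. Abbreviation: GI50, concentration required for 50% inhibition of growth. At the TGI there is no net growth.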

Tests used:
Test in all cases: DTP human tumour cell line panel, 48 h
MCF7 breast = system: MCF7 breast
MOLT-4 leukemia = system: MOLT-4 leukemia
HT29 colon = system: HT29 colon
PC-3 prostate = system: PC-3 prostate
IGROV1 ovarian = system: IGROV1 ovarian
EKVX NSCLC = system: EKVX NSCLC
UACC-62 melanoma = system: UACC-62 melanoma
SR leukemia = system: SR leukemia
HS 578T breast = system: HS 578T breast
HOP-62 NSCLC = system: HOP-62 NSCLC

CCN1CCN(c2cc(C(=O)Nc3cccc(Nc4ccc5c(OC)cccc5n4)c3)cc(C(F)(F)F)c2)CC1
GI50 (MCF7 breast): 0.679 µM | TGI (MCF7 breast): 2.28 µM | GI50 (MOLT-4 leukemia): 0.616 µM | TGI (MOLT-4 leukemia): 12.3 µM | GI50 (HT29 colon): 0.572 µM | TGI (HT29 colon): 1.21 µM | GI50 (PC-3 prostate): 0.805 µM | TGI (PC-3 prostate): 2.5 µM | GI50 (IGROV1 ovarian): 0.924 µM | TGI (IGROV1 ovarian): 5.23 µM | GI50 (EKVX NSCLC): 3.07 µM | TGI (EKVX NSCLC): 9.46 µM | GI50 (UACC-62 melanoma): 1.5 µM | TGI (UACC-62 melanoma): 5.77 µM | GI50 (SR leukemia): 0.883 µM | TGI (SR leukemia): 11.7 µM | GI50 (HS 578T breast): 3.61 µM | TGI (HS 578T breast): 11.9 µM | GI50 (HOP-62 NSCLC): 1.02 µM | TGI (HOP-62 NSCLC): 4.04 µM

CN(C)CCN1C(=O)c2cccc3c(/C=C/CN4C(=O)c5cccc6cccc(c56)C4=O)ccc(c23)C1=O
GI50 (MCF7 breast): 21.1 µM | TGI (MCF7 breast): 62.4 µM | GI50 (MOLT-4 leukemia): > 100 µM | TGI (MOLT-4 leukemia): > 100 µM | GI50 (HT29 colon): > 100 µM | TGI (HT29 colon): > 100 µM | GI50 (PC-3 prostate): > 100 µM | TGI (PC-3 prostate): > 100 µM | GI50 (IGROV1 ovarian): > 100 µM | TGI (IGROV1 ovarian): > 100 µM | GI50 (EKVX NSCLC): > 100 µM | TGI (EKVX NSCLC): > 100 µM | GI50 (UACC-62 melanoma): 16.3 µM | TGI (UACC-62 melanoma): 33.1 µM | GI50 (SR leukemia): 39.2 µM | TGI (SR leukemia): > 100 µM | GI50 (HS 578T breast): 13.8 µM | TGI (HS 578T breast): 35.7 µM | GI50 (HOP-62 NSCLC): 42 µM | TGI (HOP-62 NSCLC): > 100 µM

COC1=C(OC)C(=O)C(C/C=C(\C)CC/C=C(\C)CC/C=C(\C)CC/C=C(\C)CC/C=C(\C)CC/C=C(\C)CC/C=C(\C)CC/C=C(\C)CC/C=C(\C)CCC=C(C)C)=C(C)C1=O
GI50 (MCF7 breast): > 100 µM | TGI (MCF7 breast): > 100 µM | GI50 (MOLT-4 leukemia): > 100 µM | TGI (MOLT-4 leukemia): > 100 µM | GI50 (HT29 colon): > 100 µM | TGI (HT29 colon): > 100 µM | GI50 (PC-3 prostate): > 100 µM | TGI (PC-3 prostate): > 100 µM | GI50 (IGROV1 ovarian): > 100 µM | TGI (IGROV1 ovarian): > 100 µM | GI50 (EKVX NSCLC): > 100 µM | TGI (EKVX NSCLC): > 100 µM | GI50 (UACC-62 melanoma): > 100 µM | TGI (UACC-62 melanoma): > 100 µM | GI50 (SR leukemia): > 100 µM | TGI (SR leukemia): > 100 µM | GI50 (HS 578T breast): > 100 µM | TGI (HS 578T breast): > 100 µM | GI50 (HOP-62 NSCLC): > 100 µM | TGI (HOP-62 NSCLC): > 100 µM

CC(C)C1(NC(=O)C2CC3c4cccc5[nH]cc(c45)CC3N(C)C2)OC2(O)C3CCCN3C(=O)C(Cc3ccccc3)N2C1=O (stereo not given)
TGI (MCF7 breast): > 100 µM | TGI (MOLT-4 leukemia): 80.4 µM | TGI (HT29 colon): > 100 µM | TGI (PC-3 prostate): > 100 µM | TGI (IGROV1 ovarian): > 100 µM | TGI (EKVX NSCLC): > 100 µM | TGI (UACC-62 melanoma): > 100 µM | TGI (SR leukemia): 41.2 µM | TGI (HS 578T breast): > 100 µM | TGI (HOP-62 NSCLC): > 100 µM

CCc1ccc2oc(=O)ccc2c1
TGI (MCF7 breast): > 100 µM | TGI (MOLT-4 leukemia): > 100 µM | TGI (HT29 colon): > 100 µM | TGI (PC-3 prostate): > 100 µM | TGI (IGROV1 ovarian): > 100 µM | TGI (EKVX NSCLC): > 100 µM | TGI (UACC-62 melanoma): > 100 µM | TGI (SR leukemia): > 100 µM | TGI (HS 578T breast): > 100 µM | TGI (HOP-62 NSCLC): > 100 µM
